# Source: ChEMBL document CHEMBL4665842, “Sortase A-Inhibitory Coumarins from the Folk Medicinal Plant Poncirus trifoliata” (J Nat Prod, 2020)
# Calls of active or inactive are those of the source. The calls are words filed in the database; no cut-off is given here.
# How the values were obtained:
# Staphylococcus aureus [1] = assay: Antimicrobial activity against Staphylococcus aureus ATCC 6538p; assay type: functional
# [2] = Inhibition of recombinant Staphylococcus aureus ATCC 6538p sortase A using dabcyl-LPETG-edans as substrate incubated for 2 hrs by fluorometric method
# Staphylococcus aureus [3] = assay: Inhibition of Staphylococcus aureus Newman sortase A assessed as […] in fibrinogen-mediated cell clumping at 100 uM after 2 hrs
# Staphylococcus aureus [4] = assay: Inhibition of Staphylococcus aureus Newman sortase A assessed as […] in fibrinogen-mediated cell clumping after 2 hrs; details: dose microM 25-100, time 2.0 hrs
# Staphylococcus aureus [5] = assay: Inhibition of Staphylococcus aureus Newman sortase A assessed as reduction in bacterial adherence to fibronectin-coated surfaces up to 4 times of IC50 concentration for every 30 mins for 2.5 hrs; details: time hrs <=2.5
SMILES,MIC (Staphylococcus aureus [1]) [µM],IC50 [2] [µM],fold change (FC) (Staphylococcus aureus [3]),inhibition (Staphylococcus aureus [4]),inhibition (Staphylococcus aureus [5])
COC(C)(C)[C@H](O)COc1ccc2ccc(=O)oc2c1C[C@H](O)C(C)(C)O,> 337,76,,,
CC(C)(O)[C@H](O)COc1c2ccoc2cc2oc(=O)ccc12 [OXYPEUCEDANIN HYDRATE],> 421,230,,,
CC1(C)S[C@@H]2[C@H](NC(=O)[C@H](N)c3ccccc3)C(=O)N2[C@H]1C(=O)O [AMPICILLIN],0.18,,,,
C/C(=C\COc1ccc2ccc(=O)oc2c1)C/C=C/C(C)(C)OO,> 388,19.1,> 2,Dose-dependent effect,Active
C=C(C)[C@H](CC/C(C)=C/COc1ccc2ccc(=O)oc2c1)OO,> 388,23.5,> 2,Dose-dependent effect,
COC(C)(C)[C@@H](O)Cc1c(OC[C@@H](O)C(C)(C)O)ccc2ccc(=O)oc12,> 337,26.6,> 2,Dose-dependent effect,Active
CC(C)C(=O)Cc1c(OC[C@@H](O)C(C)(C)O)ccc2ccc(=O)oc12,> 368,34.5,> 2,Dose-dependent effect,Active
O=C(O)/C=C/c1ccc(O)cc1 [COUMARIC ACID],> 780,> 780,,,

# More lines, now with the values ahead:
MIC (Staphylococcus aureus [1]) [µM],IC50 [2] [µM],fold change (FC) (Staphylococcus aureus [3]),inhibition (Staphylococcus aureus [4]),inhibition (Staphylococcus aureus [5]),SMILES
> 350,47.2,> 2,Dose-dependent effect,,CC(C)(O)[C@H](O)COc1ccc2ccc(=O)oc2c1C[C@H](O)C(C)(C)O
> 790,,,,,O=c1ccc2ccc(O)cc2o1 [UMBELLIFERONE]
> 353,119,,,,COC(C)(C)[C@H](O)COc1ccc2ccc(=O)oc2c1CC(=O)C(C)C
> 388,112,,,,C=C(C)[C@H](O)COc1ccc2ccc(=O)oc2c1CC(=O)C(C)C
